In PubChem BioAssay (NCI):
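Five concentrations, 48 hours, 96-well plates. GI50 is the concentration that inhibits growth by half. TGI: total growth inhibition.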

What was measured:
Experiment in all cases: NCI-60 cell line screen, 48 h
NCI-H23 lung = test system: NCI-H23 lung
OVCAR-5 ovarian = test system: OVCAR-5 ovarian
CAKI-1 renal = test system: CAKI-1 renal
MOLT-4 leukemia = test system: MOLT-4 leukemia
NCI/ADR-RES ovarian = test system: NCI/ADR-RES ovarian
U251 CNS = test system: U251 CNS
BT-549 breast = test system: BT-549 breast
UACC-62 melanoma = test system: UACC-62 melanoma
NCI-H226 lung = test system: NCI-H226 lung
HCC-2998 colon = test system: HCC-2998 colon

O=c1cccc(C#CCCCCOC2CCCO2)o1 (centres undefined)
GI50 (NCI-H23 lung): 5 µM
TGI (NCI-H23 lung): 14.9 µM
GI50 (OVCAR-5 ovarian): 19.7 µM
TGI (OVCAR-5 ovarian): > 41.2 µM
GI50 (CAKI-1 renal): 11.4 µM
TGI (CAKI-1 renal): 33.6 µM
GI50 (MOLT-4 leukemia): 8.06 µM
TGI (MOLT-4 leukemia): > 30.8 µM
GI50 (NCI/ADR-RES ovarian): 12.2 µM
TGI (NCI/ADR-RES ovarian): > 18 µM
GI50 (U251 CNS): 28.8 µM
TGI (U251 CNS): > 70.1 µM
GI50 (BT-549 breast): 3.35 µM
TGI (BT-549 breast): 26.4 µM
GI50 (UACC-62 melanoma): 15.9 µM
TGI (UACC-62 melanoma): > 56.8 µM
GI50 (NCI-H226 lung): 17.8 µM
TGI (NCI-H226 lung): 56.2 µM

CC(NC1CCC[C@H]1O)c1ccccc1 (mixture of isomers)
TGI (NCI-H23 lung): > 100 µM
TGI (MOLT-4 leukemia): > 100 µM
TGI (U251 CNS): > 100 µM
TGI (HCC-2998 colon): > 100 µM
TGI (UACC-62 melanoma): > 100 µM
TGI (NCI-H226 lung): > 100 µM

CC1=CC(C)C(O)C(C)/C=C/C(O)C/C=C(/C)C(=O)CC(O)C(C)\C=C/C=C/C=C\C(=O)NC2=C(O)c3cc(C)c(O)c(c3C(=O)C2=O)C1=O (centres undefined)
TGI (NCI-H23 lung): > 100 µM
TGI (OVCAR-5 ovarian): > 100 µM
TGI (CAKI-1 renal): > 100 µM
TGI (MOLT-4 leukemia): > 100 µM
TGI (NCI/ADR-RES ovarian): > 100 µM
TGI (U251 CNS): > 100 µM
TGI (HCC-2998 colon): > 100 µM
TGI (BT-549 breast): > 100 µM
TGI (UACC-62 melanoma): > 100 µM

COC(=O)C1CCc2c(OC)ccc(OC)c2C1=O (centres undefined)
TGI (NCI-H23 lung): > 100 µM
TGI (OVCAR-5 ovarian): > 100 µM
TGI (CAKI-1 renal): > 100 µM
TGI (MOLT-4 leukemia): > 100 µM
TGI (U251 CNS): > 100 µM
TGI (HCC-2998 colon): > 100 µM
TGI (UACC-62 melanoma): > 100 µM

O=C=Nc1ccc(Cc2ccc(N=C=O)cc2)cc1 (tested in a mixture with another compound)
GI50 (NCI-H23 lung): > 25 µg/mL
TGI (NCI-H23 lung): > 25 µg/mL
GI50 (OVCAR-5 ovarian): > 25 µg/mL
TGI (OVCAR-5 ovarian): > 25 µg/mL
GI50 (CAKI-1 renal): > 25 µg/mL
TGI (CAKI-1 renal): > 25 µg/mL
GI50 (MOLT-4 leukemia): 1.33 µg/mL
TGI (MOLT-4 leukemia): > 25 µg/mL
GI50 (NCI/ADR-RES ovarian): > 25 µg/mL
TGI (NCI/ADR-RES ovarian): > 25 µg/mL
GI50 (U251 CNS): > 25 µg/mL
TGI (U251 CNS): > 25 µg/mL
GI50 (BT-549 breast): > 25 µg/mL
TGI (BT-549 breast): > 25 µg/mL
GI50 (UACC-62 melanoma): > 25 µg/mL
TGI (UACC-62 melanoma): > 25 µg/mL
GI50 (NCI-H226 lung): > 25 µg/mL
TGI (NCI-H226 lung): > 25 µg/mL

NC(C(=O)O)C(N)C(=O)O (centres undefined)
TGI (NCI-H23 lung): > 100 µM
TGI (OVCAR-5 ovarian): > 100 µM
TGI (CAKI-1 renal): > 100 µM
TGI (MOLT-4 leukemia): > 100 µM
TGI (NCI/ADR-RES ovarian): > 100 µM
TGI (U251 CNS): > 100 µM
TGI (BT-549 breast): > 100 µM
TGI (UACC-62 melanoma): > 100 µM
TGI (NCI-H226 lung): > 100 µM

COC(=O)/C(=C/N1CCN(C(=O)c2ccco2)C1=S)C(C)=O
GI50 (NCI-H23 lung): 12.2 µM
TGI (NCI-H23 lung): 31.9 µM
GI50 (CAKI-1 renal): 2.82 µM
TGI (CAKI-1 renal): 8.52 µM
GI50 (MOLT-4 leukemia): 20.8 µM
TGI (MOLT-4 leukemia): > 100 µM
GI50 (NCI/ADR-RES ovarian): 22.2 µM
TGI (NCI/ADR-RES ovarian): 56.8 µM
GI50 (U251 CNS): 5.53 µM
TGI (U251 CNS): 23.1 µM
GI50 (BT-549 breast): 3.48 µM
TGI (BT-549 breast): 9.03 µM
GI50 (UACC-62 melanoma): 11.5 µM
TGI (UACC-62 melanoma): 28.3 µM

NC1=C(c2nc(-c3cc4ccccc4oc3=O)cs2)C(c2ccco2)c2c(c3ccccc3oc2=O)O1 (centres undefined)
GI50 (NCI-H23 lung): > 150 µg/mL
TGI (NCI-H23 lung): > 150 µg/mL
GI50 (OVCAR-5 ovarian): > 150 µg/mL
TGI (OVCAR-5 ovarian): > 150 µg/mL
GI50 (CAKI-1 renal): > 150 µg/mL
TGI (CAKI-1 renal): > 150 µg/mL
GI50 (MOLT-4 leukemia): 119 µg/mL
TGI (MOLT-4 leukemia): > 150 µg/mL
GI50 (NCI/ADR-RES ovarian): > 150 µg/mL
TGI (NCI/ADR-RES ovarian): > 150 µg/mL
GI50 (U251 CNS): 21.7 µg/mL
TGI (U251 CNS): 58.4 µg/mL
GI50 (HCC-2998 colon): > 150 µg/mL
TGI (HCC-2998 colon): > 150 µg/mL
GI50 (UACC-62 melanoma): 112 µg/mL
TGI (UACC-62 melanoma): > 150 µg/mL
GI50 (NCI-H226 lung): 43.1 µg/mL
TGI (NCI-H226 lung): 131 µg/mL

COc1ccc(OC)c(CCc2cc(OC)c(OC)cc2C)c1
TGI (NCI-H23 lung): > 100 µM
TGI (OVCAR-5 ovarian): > 100 µM
TGI (CAKI-1 renal): > 100 µM
TGI (MOLT-4 leukemia): > 100 µM
TGI (U251 CNS): > 100 µM
TGI (HCC-2998 colon): > 100 µM
TGI (UACC-62 melanoma): > 100 µM

C=C(CO)CC(O)c1ccccc1 (centres undefined)
TGI (NCI-H23 lung): > 100 µM
TGI (OVCAR-5 ovarian): > 100 µM
TGI (MOLT-4 leukemia): > 100 µM
TGI (U251 CNS): > 100 µM
TGI (HCC-2998 colon): > 100 µM
TGI (UACC-62 melanoma): > 100 µM
TGI (NCI-H226 lung): > 100 µM

O=C(C#Cc1c[nH]c(=O)[nH]c1=O)c1ccccc1
TGI (NCI-H23 lung): 27.6 µM
TGI (OVCAR-5 ovarian): 33.1 µM
TGI (CAKI-1 renal): 32.3 µM
TGI (MOLT-4 leukemia): 7.96 µM
TGI (U251 CNS): 26.9 µM
TGI (HCC-2998 colon): 32.4 µM
TGI (UACC-62 melanoma): 21.8 µM
TGI (NCI-H226 lung): 63.9 µM

CSc1s[s+]c(SC)c1[O-]
TGI (NCI-H23 lung): 50.4 µM
TGI (OVCAR-5 ovarian): > 100 µM
TGI (CAKI-1 renal): 53.6 µM
TGI (MOLT-4 leukemia): 48.2 µM
TGI (U251 CNS): 86.5 µM
TGI (HCC-2998 colon): > 100 µM
TGI (UACC-62 melanoma): 28.2 µM
TGI (NCI-H226 lung): > 100 µM

O=C(NCCNCCO)c1ccc2oc3cc4ccccc4c(=O)n3c2c1
GI50 (NCI-H23 lung): 9.97 µM
TGI (NCI-H23 lung): 23.4 µM
GI50 (CAKI-1 renal): 9.56 µM
TGI (CAKI-1 renal): 29.6 µM
GI50 (MOLT-4 leukemia): 6.88 µM
TGI (MOLT-4 leukemia): > 50 µM
GI50 (NCI/ADR-RES ovarian): > 50 µM
TGI (NCI/ADR-RES ovarian): > 50 µM
GI50 (U251 CNS): 8.52 µM
TGI (U251 CNS): 17.1 µM
GI50 (BT-549 breast): 12.3 µM
TGI (BT-549 breast): 24.1 µM
GI50 (UACC-62 melanoma): 7.85 µM
TGI (UACC-62 melanoma): 19 µM

COc1ccc2cc(C(=O)/C=C/c3ccc(OC)c(OC)c3)ccc2c1
GI50 (CAKI-1 renal): 21 µM
TGI (CAKI-1 renal): 97.6 µM
GI50 (MOLT-4 leukemia): 5.97 µM
TGI (MOLT-4 leukemia): > 100 µM
GI50 (U251 CNS): 11.8 µM
TGI (U251 CNS): 58.8 µM
GI50 (BT-549 breast): 21.1 µM
TGI (BT-549 breast): 68.7 µM
GI50 (UACC-62 melanoma): 16.2 µM
TGI (UACC-62 melanoma): 39.2 µM

N#Cc1cccc(Nc2nccc(-c3cnn4ncccc34)n2)c1
GI50 (NCI-H23 lung): 0.00686 µM
TGI (NCI-H23 lung): 0.0239 µM
GI50 (OVCAR-5 ovarian): 0.00823 µM
TGI (OVCAR-5 ovarian): > 25 µM
GI50 (CAKI-1 renal): 0.00729 µM
TGI (CAKI-1 renal): 1.17 µM
GI50 (NCI/ADR-RES ovarian): 0.00697 µM
GI50 (U251 CNS): 0.00552 µM
TGI (U251 CNS): > 25 µM
GI50 (HCC-2998 colon): 0.00695 µM
TGI (HCC-2998 colon): 0.0241 µM
GI50 (BT-549 breast): 0.00559 µM
TGI (BT-549 breast): 0.017 µM
GI50 (UACC-62 melanoma): 0.00396 µM
TGI (UACC-62 melanoma): 0.0116 µM
GI50 (NCI-H226 lung): 0.00513 µM
TGI (NCI-H226 lung): 0.0152 µM

Cc1cc(N2CCN(C)CC2)nc(NC2CCCC(Nc3ccnc4cc(Cl)ccc34)C2)n1 (centres undefined)
GI50 (NCI-H23 lung): 4.19 µM
TGI (NCI-H23 lung): 17.7 µM
GI50 (OVCAR-5 ovarian): 2.88 µM
TGI (OVCAR-5 ovarian): 9.88 µM
GI50 (MOLT-4 leukemia): 1.77 µM
TGI (MOLT-4 leukemia): 7.59 µM
GI50 (NCI/ADR-RES ovarian): 3.34 µM
TGI (NCI/ADR-RES ovarian): 13.3 µM
GI50 (U251 CNS): 2.02 µM
TGI (U251 CNS): 4.33 µM
GI50 (HCC-2998 colon): 1.97 µM
TGI (HCC-2998 colon): 7.4 µM
GI50 (BT-549 breast): 2.08 µM
TGI (BT-549 breast): 5.76 µM
GI50 (UACC-62 melanoma): 1.8 µM
TGI (UACC-62 melanoma): 3.54 µM
GI50 (NCI-H226 lung): 3.01 µM
TGI (NCI-H226 lung): 10.3 µM

Cc1ccc(C(=O)/C=C/c2ccccc2Cl)cc1
TGI (NCI-H23 lung): 40.1 µM
TGI (OVCAR-5 ovarian): 41.9 µM
TGI (CAKI-1 renal): 34.6 µM
TGI (MOLT-4 leukemia): 56.1 µM
TGI (U251 CNS): 30.3 µM
TGI (HCC-2998 colon): 33.2 µM
TGI (UACC-62 melanoma): 27.7 µM
TGI (NCI-H226 lung): 61 µM

O=C(Nc1cc(C(F)(F)F)ccc1Cl)C(=O)C(C(=O)c1ccc2ccccc2c1)C1OC(=O)c2ccccc21 (centres undefined)
TGI (NCI-H23 lung): 17.8 µM
TGI (OVCAR-5 ovarian): 24.5 µM
TGI (CAKI-1 renal): > 52.5 µM
TGI (MOLT-4 leukemia): 9.16 µM
TGI (U251 CNS): 14.3 µM
TGI (HCC-2998 colon): 22.7 µM
TGI (UACC-62 melanoma): 32.9 µM
TGI (NCI-H226 lung): 3.36 µM

Cc1cccc(NC(=O)CC2C(=O)Nc3ccccc3S2(=O)=O)c1C (centres undefined)
TGI (NCI-H23 lung): 33.7 µM
TGI (OVCAR-5 ovarian): > 100 µM
TGI (CAKI-1 renal): > 100 µM
TGI (MOLT-4 leukemia): > 100 µM
TGI (U251 CNS): 78.1 µM
TGI (HCC-2998 colon): > 100 µM
TGI (UACC-62 melanoma): 46.3 µM
TGI (NCI-H226 lung): 58.3 µM

CC1=CCC2(C#N)CCC1C2=O (centres undefined)
TGI (NCI-H23 lung): > 100 µM
TGI (OVCAR-5 ovarian): > 100 µM
TGI (CAKI-1 renal): > 100 µM
TGI (MOLT-4 leukemia): > 100 µM
TGI (U251 CNS): > 100 µM
TGI (UACC-62 melanoma): > 100 µM
TGI (NCI-H226 lung): > 100 µM
